Experimental data reported in PubChem BioAssay (NCI).
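Test compounds were applied to cells in 96-well plates for 48 hours at 5 doses. GI50 is the concentration that inhibits growth by half. TGI is the concentration that stops growth completely.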

Key:
Assay in all cases: NCI anticancer screen, dose series, 48 h
[1] = system: UO-31 renal
[2] = system: A549 NSCLC
[3] = system: M14 melanoma
[4] = system: SK-MEL-2 melanoma
[5] = system: NCI-H522 lung
[6] = system: EKVX NSCLC
[7] = system: PC-3 prostate
[8] = system: KM12 colon
[9] = system: MOLT-4 leukemia
[10] = system: CAKI-1 renal
[11] = system: UACC-62 melanoma
[12] = system: HT29 colon
[13] = system: NCI-H23 lung
[14] = system: CCRF-CEM leukemia
[15] = system: MDA-MB-435
[16] = system: DU-145 prostate
[17] = system: NCI/ADR-RES ovarian
[18] = system: HCC-2998 colon
[19] = system: HCT-116 colon
[20] = system: SK-MEL-28 melanoma
[21] = system: A498 renal
[22] = system: T-47D breast
[23] = system: MCF7 breast
[24] = system: NCI-H226 lung
[25] = system: IGROV1 ovarian
[26] = system: U251 CNS
[27] = system: K-562 leukemia
[28] = system: SF-268 CNS
[29] = system: NCI-H460 lung
[30] = system: HL-60(TB) leukemia
[31] = system: SR leukemia
[32] = system: MDA-MB-231 breast
[33] = system: HS 578T breast
[34] = system: ACHN renal
[35] = system: SK-OV-3 ovarian
[36] = system: COLO 205 colon
[37] = system: BT-549 breast
[38] = system: SW-620 colon
[39] = system: UACC-257 melanoma
[40] = system: OVCAR-5 ovarian
[41] = system: OVCAR-3 ovarian
[42] = system: SK-MEL-5 melanoma
[43] = system: SNB-19 CNS
[44] = system: HCT-15 colon
[45] = system: OVCAR-4 ovarian
[46] = system: TK-10 renal
[47] = system: LOX IMVI melanoma
[48] = system: SF-295 CNS
[49] = system: SN12C renal
[50] = system: SNB-75 CNS
[51] = system: SF-539 CNS
[52] = system: RPMI-8226 leukemia
[53] = system: 786-0 renal
[54] = system: RXF 393 renal
[55] = system: HOP-62 NSCLC
[56] = system: OVCAR-8 ovarian
[57] = system: MALME-3M melanoma

CCS(=O)(=O)c1ccc(OC)c(Nc2ncc(-c3cccc(C(C)=O)c3)o2)c1
GI50 [1]: 5.86 µM | TGI [1]: > 25 µM | GI50 [2]: > 25 µM | TGI [2]: > 25 µM | GI50 [3]: > 25 µM | TGI [3]: > 25 µM | GI50 [4]: > 25 µM | TGI [4]: > 25 µM | GI50 [5]: 11 µM | TGI [5]: > 25 µM | GI50 [6]: > 25 µM | TGI [6]: > 25 µM | GI50 [7]: > 25 µM | TGI [7]: > 25 µM | GI50 [8]: 2.1 µM | TGI [8]: > 25 µM | GI50 [9]: > 25 µM | TGI [9]: > 25 µM | GI50 [10]: 8.71 µM | TGI [10]: > 25 µM | GI50 [11]: > 25 µM | TGI [11]: > 25 µM | GI50 [12]: > 25 µM | TGI [12]: > 25 µM | GI50 [13]: > 25 µM | TGI [13]: > 25 µM | GI50 [14]: > 25 µM | TGI [14]: > 25 µM | GI50 [15]: > 25 µM | TGI [15]: > 25 µM | GI50 [16]: > 25 µM | TGI [16]: > 25 µM | GI50 [17]: > 25 µM | TGI [17]: > 25 µM | GI50 [18]: > 25 µM | TGI [18]: > 25 µM | GI50 [19]: 11.4 µM | TGI [19]: > 25 µM | GI50 [20]: > 25 µM | TGI [20]: > 25 µM | GI50 [21]: 0.6 µM | TGI [21]: 5.88 µM | GI50 [22]: 16.7 µM | TGI [22]: > 25 µM | GI50 [23]: > 25 µM | TGI [23]: > 25 µM | GI50 [24]: 2.69 µM | TGI [24]: > 25 µM | GI50 [25]: 5.47 µM | TGI [25]: 16.1 µM | GI50 [26]: 19.7 µM | TGI [26]: > 25 µM | GI50 [27]: 7.56 µM | TGI [27]: > 25 µM | GI50 [28]: 17.9 µM | TGI [28]: > 25 µM | GI50 [29]: > 25 µM | TGI [29]: > 25 µM | GI50 [30]: > 25 µM | TGI [30]: > 25 µM | GI50 [31]: 15.6 µM | TGI [31]: > 25 µM | GI50 [32]: 7.73 µM | TGI [32]: > 25 µM | GI50 [33]: 5.88 µM | TGI [33]: > 25 µM | GI50 [34]: 11.4 µM | TGI [34]: > 25 µM | GI50 [35]: 21.5 µM | TGI [35]: > 25 µM | GI50 [36]: > 25 µM | TGI [36]: > 25 µM | GI50 [37]: 20.4 µM | TGI [37]: > 25 µM | GI50 [38]: > 25 µM | TGI [38]: > 25 µM | GI50 [39]: > 25 µM | TGI [39]: > 25 µM | GI50 [40]: > 25 µM | TGI [40]: > 25 µM | GI50 [41]: > 25 µM | TGI [41]: > 25 µM | GI50 [42]: > 25 µM | TGI [42]: > 25 µM | GI50 [43]: 19.9 µM | TGI [43]: > 25 µM | GI50 [44]: > 25 µM | TGI [44]: > 25 µM | GI50 [45]: > 25 µM | TGI [45]: > 25 µM | GI50 [46]: > 25 µM | TGI [46]: > 25 µM | GI50 [47]: 10.4 µM | TGI [47]: > 25 µM | GI50 [48]: 23.1 µM | TGI [48]: > 25 µM | GI50 [49]: 14 µM | TGI [49]: > 25 µM | GI50 [50]: 2.73 µM | TGI [50]: 23 µM | GI50 [51]: 8.69 µM | TGI [51]: > 25 µM | GI50 [52]: > 25 µM | TGI [52]: > 25 µM | GI50 [53]: > 25 µM | TGI [53]: > 25 µM | GI50 [54]: 3.21 µM | TGI [54]: 16.6 µM | GI50 [55]: > 25 µM | TGI [55]: > 25 µM | GI50 [56]: > 25 µM | TGI [56]: > 25 µM

CCOC(=O)Sc1ncnc2nc[nH]c12
GI50 [1]: 4.14 µM | TGI [1]: > 100 µM | GI50 [2]: 25.9 µM | TGI [2]: > 100 µM | GI50 [3]: 0.408 µM | TGI [3]: > 100 µM | GI50 [4]: 6.15 µM | TGI [4]: > 100 µM | GI50 [5]: 3.33 µM | TGI [5]: > 100 µM | GI50 [6]: 38.5 µM | TGI [6]: > 100 µM | GI50 [7]: 4.07 µM | TGI [7]: > 100 µM | GI50 [8]: 4.03 µM | TGI [8]: > 100 µM | GI50 [9]: 1.58 µM | TGI [9]: 6.57 µM | GI50 [10]: 0.579 µM | TGI [10]: 6.31 µM | GI50 [11]: 1.37 µM | TGI [11]: > 100 µM | GI50 [12]: 3.07 µM | TGI [12]: > 100 µM | GI50 [13]: 3.93 µM | TGI [13]: > 100 µM | GI50 [14]: 0.629 µM | TGI [14]: 13.4 µM | GI50 [15]: 1.47 µM | TGI [15]: > 100 µM | GI50 [16]: 0.586 µM | TGI [16]: > 100 µM | GI50 [17]: 3.47 µM | TGI [17]: > 100 µM | GI50 [18]: 3.13 µM | TGI [18]: > 100 µM | GI50 [19]: 2.31 µM | TGI [19]: > 100 µM | GI50 [20]: 43.7 µM | TGI [20]: > 100 µM | GI50 [21]: 14.4 µM | TGI [21]: > 100 µM | GI50 [22]: 0.799 µM | TGI [22]: > 100 µM | GI50 [23]: 0.616 µM | TGI [23]: > 100 µM | GI50 [24]: 4.46 µM | TGI [24]: > 100 µM | GI50 [25]: 6.69 µM | TGI [25]: > 100 µM | GI50 [26]: 12.9 µM | TGI [26]: > 100 µM | GI50 [27]: 0.312 µM | TGI [27]: > 100 µM | GI50 [28]: 3.89 µM | TGI [28]: > 100 µM | GI50 [29]: 5.75 µM | TGI [29]: > 100 µM | GI50 [30]: 1.42 µM | TGI [30]: 6.7 µM | GI50 [31]: 0.358 µM | TGI [31]: 6.35 µM | GI50 [32]: 3.88 µM | TGI [32]: > 100 µM | GI50 [33]: 13.8 µM | TGI [33]: > 100 µM | GI50 [34]: 4.65 µM | TGI [34]: > 100 µM | GI50 [35]: 0.484 µM | TGI [35]: > 100 µM | GI50 [36]: 3.92 µM | TGI [36]: 46.4 µM | GI50 [37]: 9.92 µM | TGI [37]: > 100 µM | GI50 [38]: 3.89 µM | TGI [38]: > 100 µM | GI50 [39]: 7.2 µM | TGI [39]: > 100 µM | GI50 [40]: 4.49 µM | TGI [40]: > 100 µM | GI50 [57]: 27.1 µM | TGI [57]: > 100 µM | GI50 [41]: 0.474 µM | TGI [41]: > 100 µM | GI50 [42]: 5.96 µM | TGI [42]: > 100 µM | GI50 [43]: 85 µM | TGI [43]: > 100 µM | GI50 [44]: 2.86 µM | TGI [44]: > 100 µM | GI50 [45]: 0.491 µM | TGI [45]: > 100 µM | GI50 [46]: 0.547 µM | TGI [46]: > 100 µM | GI50 [47]: 0.348 µM | TGI [47]: > 100 µM | GI50 [48]: 2.43 µM | TGI [48]: > 100 µM | GI50 [49]: 7.94 µM | TGI [49]: > 100 µM | GI50 [50]: 0.747 µM | TGI [50]: > 100 µM | GI50 [51]: 2.35 µM | TGI [51]: > 100 µM | GI50 [53]: 2.31 µM | TGI [53]: > 100 µM | GI50 [54]: 15.1 µM | TGI [54]: > 100 µM | GI50 [55]: 0.808 µM | TGI [55]: > 100 µM | GI50 [56]: 3.08 µM | TGI [56]: > 100 µM
